Test results published in patent US5753695A, “Flavilium compounds and method of using” (Biogal Gyogyszergyar RT, priority 1992, dated 1998).

Assays:
CFP/SPF laboratory mice = test: Acute toxicity, CFP/SPF laboratory mice; format: in vivo; conditions: oral doses even as high as 2,000 μg/kg
Protocol: (§1) Acute toxicity examinations on CFP/SPF laboratory mice strains and WISTAR Charles River/SPF laboratory rat strains, orally and intravenously have shown that BIOGAL-6 is nontoxic at oral doses even as high as […].

HIV-1 IIIB = test: HIV reverse transcriptase activity / HIV replication in infected MT-4 and H9 human lymphocyte cell-lines; format: cell-based, HIV-1 strain IIIB
Protocol: The HIV reverse transcriptase inhibiting activity of compounds of formula (I) of the invention was measured by the method of Hoffman, A. D. et al. described in Virology, Vol. 147, pp. 326-335, 1985.
The measurement results are shown for the model compound 5,7,4'-trihydroxy-4,3',5'-trimethyl-flavilium chloride (hereinafter referred to as "BIOGAL 6") and prepared as described in Example 1 below.
The active agents were tested on MT-4 and H9 human lymphocyte cell-lines infected with the strain HIV-1 IIIB. The cells were infected with 20 TCID50 of the HIV-1 virus.
[…] The active agent was first added to the culture 4 hours before the infection, and then 24, and 48 hours after infection. HIV infected, untreated MT-4 and H9 cells were used, as well as uninfected, untreated cells as a control. The AZT-control was zidovudine (ZDU) sold by Burroughs Wellcome Company under the name Retrovir.
Reverse transcriptase inhibiting activity was determined on 500 μl aliquots from supernatant of the culture and their virus concentration was measured. The results are given in cpm/cm^3 indicating ^3 H-TTP.

[1] = system: WISTAR Charles River/SPF laboratory rat strains; test: Acute toxicity, WISTAR Charles River/SPF laboratory rats; format: in vivo; conditions: oral doses even as high as 2,000 μg/kg
Protocol: as §1

SMILES | RT activity (HIV-1 IIIB; Table 1, 5 μg/cm^3, 7 day) | RT activity (HIV-1 IIIB; Table 1, 5 μg/cm^3, 10 day) | RT activity (HIV-1 IIIB; Table 1, 5 μg/cm^3, 18 day) | RT activity (HIV-1 IIIB; Table 1, 20 μg/cm^3, 7 day) | RT activity (HIV-1 IIIB; Table 1, 20 μg/cm^3, 10 day) | RT activity (HIV-1 IIIB; Table 1, 20 μg/cm^3, 18 day) | RT activity (HIV-1 IIIB; Table 1, 100 μg/cm^3, 7 day) | RT activity (HIV-1 IIIB; Table 1, 100 μg/cm^3, 10 day) | RT activity (HIV-1 IIIB; Table 1, 100 μg/cm^3, 18 day) | RT activity (HIV-1 IIIB; Table 2, 0.1 μg/cm^3, 7 day) | RT activity (HIV-1 IIIB; Table 2, 0.1 μg/cm^3, 10 day) | RT activity (HIV-1 IIIB; Table 2, 0.1 μg/cm^3, 18 day) | RT activity (HIV-1 IIIB; Table 2, 0.5 μg/cm^3, 7 day) | RT activity (HIV-1 IIIB; Table 2, 0.5 μg/cm^3, 10 day) | RT activity (HIV-1 IIIB; Table 2, 0.5 μg/cm^3, 18 day) | RT activity (HIV-1 IIIB; Table 2, 1.0 μg/cm^3, 7 day) | RT activity (HIV-1 IIIB; Table 2, 1.0 μg/cm^3, 10 day) | RT activity (HIV-1 IIIB; Table 2, 1.0 μg/cm^3, 18 day) | RT activity (HIV-1 IIIB; Table 2, 2.5 μg/cm^3, 7 day) | RT activity (HIV-1 IIIB; Table 2, 2.5 μg/cm^3, 10 day) | further results
Cc1cc(-c2cc(C)c3c(O)cc(O)cc3[o+]2)cc(C)c1O [BIOGAL 6, 5,7,4'-trihydroxy-4,3',5'-trimethyl-flavilium chloride] | 1.795 cpm/cm^3 | 1.228 cpm/cm^3 | 1.198 cpm/cm^3 | 1.748 cpm/cm^3 | 1.626 cpm/cm^3 | 1.300 cpm/cm^3 | 1.666 cpm/cm^3 | 1.300 cpm/cm^3 | 1.359 cpm/cm^3 | 111.035 cpm/cm^3 | 99.813 cpm/cm^3 | 45.535 cpm/cm^3 | 108.846 cpm/cm^3 | 98.150 cpm/cm^3 | 43.804 cpm/cm^3 | 96.638 cpm/cm^3 | 75.917 cpm/cm^3 | 38.595 cpm/cm^3 | 6.231 cpm/cm^3 | 8.938 cpm/cm^3 | acute toxicity (CFP/SPF laboratory mice): nontoxic; effect on HIV (in words) (HIV-1 IIIB; 1.0 μg/cm^3 and below): completely ineffective; effect on HIV replication (in words) (HIV-1 IIIB; 5 μg/cm^3): completely blocked the HIV replication; duration of effect compared to AZT (in words), FIG. 1 (HIV-1 IIIB; 5 μg/cm^3, FIG. 1): long lasting when compared to AZT; effect on HIV production (in words), FIG. 1 (HIV-1 IIIB; 5 μg/cm^3, FIG. 1): completely blocked HIV production; duration of effect on HIV (in words) (HIV-1 IIIB; 2.5 and 5 μg/cm^3): long-lasting; RT activity (HIV-1 IIIB; Table 2, 2.5 μg/cm^3, 18 day): 6.803 cpm/cm^3; RT activity (HIV-1 IIIB; Table 2, 5.0 μg/cm^3, 7 day): 1.478 cpm/cm^3; RT activity (HIV-1 IIIB; Table 2, 5.0 μg/cm^3, 10 day): 1.019 cpm/cm^3; RT activity (HIV-1 IIIB; Table 2, 5.0 μg/cm^3, 18 day): 1.226 cpm/cm^3; acute toxicity [1]: nontoxic
Cc1cn([C@H]2C[C@H](N=[N+]=[N-])[C@@H](CO)O2)c(=O)[nH]c1=O [AZT, azidothymidine, reference compound] | 2.195 cpm/cm^3 | 2.127 cpm/cm^3 | 38.797 cpm/cm^3 | 2.386 cpm/cm^3 | 2.224 cpm/cm^3 | 1.921 cpm/cm^3 | 2.220 cpm/cm^3 | 2.181 cpm/cm^3 | 1.838 cpm/cm^3 | 7.392 cpm/cm^3 | 125.627 cpm/cm^3 | 62.817 cpm/cm^3 | 6.148 cpm/cm^3 | 75.051 cpm/cm^3 | 84.047 cpm/cm^3 | 3.989 cpm/cm^3 | 15.115 cpm/cm^3 | 75.539 cpm/cm^3 | 3.231 cpm/cm^3 | 9.083 cpm/cm^3 | RT activity (HIV-1 IIIB; Table 2, 2.5 μg/cm^3, 18 day): 116.001 cpm/cm^3; RT activity (HIV-1 IIIB; Table 2, 5.0 μg/cm^3, 7 day): 1.724 cpm/cm^3; RT activity (HIV-1 IIIB; Table 2, 5.0 μg/cm^3, 10 day): 3.571 cpm/cm^3; RT activity (HIV-1 IIIB; Table 2, 5.0 μg/cm^3, 18 day): 51.735 cpm/cm^3
